Experimental data reported in patent US11912693B2, “Compounds for modulating S1P1 activity and methods of using the same” (TREVENA, INC., priority 2017, dated 2024).

Key:
[1] = molecular target: T1, human sphingosine-1-phosphate receptor 1 (S1P1) (Homo sapiens (Human), UniProt P21453); experiment: Inhibition of cAMP production (HTRF cAMP HiRange), S1P1 CHO-K1 cells; assay type: cell-based; settings: for Emax: CHO-K1, efficacy (SPAN) normalized to fingolimod, read-out: hS1P1 cAMP SPAN
In short: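 CHO-K1 cells stably co-expressing human S1P1 (C-terminal Prolink tag) and EA-β-arrestin2 were grown in AssayComplete Media 6 at 37° C. and 5% CO2, plated, and incubated overnight. Agonist-driven inhibition of intracellular cAMP was read by TR-FRET with the HTRF cAMP HiRange kit on a PheraStar reader. Potency is pEC50, and efficacy (SPAN) is normalized to fingolimod.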
Target sequence in this assay (P21453 whole entry, looked up): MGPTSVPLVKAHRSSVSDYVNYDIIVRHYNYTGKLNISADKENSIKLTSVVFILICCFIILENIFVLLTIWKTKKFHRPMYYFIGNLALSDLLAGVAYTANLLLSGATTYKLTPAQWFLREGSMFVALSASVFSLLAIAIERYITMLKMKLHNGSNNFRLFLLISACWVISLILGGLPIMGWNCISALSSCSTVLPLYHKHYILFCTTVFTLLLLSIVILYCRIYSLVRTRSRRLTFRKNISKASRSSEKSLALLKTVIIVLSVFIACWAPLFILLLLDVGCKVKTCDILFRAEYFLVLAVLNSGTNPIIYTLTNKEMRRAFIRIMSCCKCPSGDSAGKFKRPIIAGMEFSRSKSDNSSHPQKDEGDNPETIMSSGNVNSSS

[2] = molecular target: T1, human sphingosine-1-phosphate receptor 1 (S1P1); experiment: β-Arrestin2 recruitment assay (PathHunter), S1P1 CHO-K1 cells; assay type: cell-based; settings: for Emax: CHO-K1, efficacy (SPAN) normalized to fingolimod, read-out: hS1P1 B-arrestin2 SPAN
In short: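 Enzyme-fragment complementation read-out: agonist-driven β-arrestin2 binding to ProLink-tagged human S1P1 in stable CHO-K1 cells restores β-galactosidase, measured 1 h at room temperature after a 60 min 37° C. compound incubation. Potency as pEC50, efficacy relative to fingolimod (SPAN).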
Target sequence in this assay (P21453 whole entry, looked up): as above
Target sequence in this assay (P32121 whole entry partner, looked up): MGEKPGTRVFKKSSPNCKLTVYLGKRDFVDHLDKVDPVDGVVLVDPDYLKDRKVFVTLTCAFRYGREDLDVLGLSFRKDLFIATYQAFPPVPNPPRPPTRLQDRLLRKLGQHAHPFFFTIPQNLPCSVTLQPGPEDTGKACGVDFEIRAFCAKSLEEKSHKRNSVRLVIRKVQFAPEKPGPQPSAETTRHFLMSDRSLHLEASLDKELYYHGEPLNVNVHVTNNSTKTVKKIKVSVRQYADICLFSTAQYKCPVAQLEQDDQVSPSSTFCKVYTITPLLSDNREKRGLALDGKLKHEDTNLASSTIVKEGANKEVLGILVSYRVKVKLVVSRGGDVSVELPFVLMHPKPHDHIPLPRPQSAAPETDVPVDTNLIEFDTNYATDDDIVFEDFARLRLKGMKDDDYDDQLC

[3] = inhibition of cAMP production, S1P1 CHO-K1 cells
[4] = β-arrestin2 recruitment, S1P1 CHO-K1 cells

Cc1ccccc1-c1noc(-c2ccc3c(c2)nnn3CC(F)F)n1 [Compound 182, 1-(2,2-difluoroethyl)-5-[3-(2-methylphenyl)-1,2,4-oxadiazol-5-yl]-1H-1,2,3-benzotriazole]
Emax [1]: > 75% | hS1P1 cAMP pEC50 [1, 3]: >6.5 | Emax [2]: < 75% | hS1P1 B-arrestin2 pEC50 [2, 4]: >5

CC(C)n1nnc2cc(-c3nc(-c4ccccc4Br)co3)ccc21 [Compound 183, 5-[4-(2-bromophenyl)-1,3-oxazol-2-yl]-1-(propan-2-yl)-1H-1,2,3-benzotriazole]
Emax [1]: > 75% | hS1P1 cAMP pEC50 [1, 3]: >6.5 | Emax [2]: > 75% | hS1P1 B-arrestin2 pEC50 [2, 4]: >5

COc1ccccc1-c1cnc(-c2ccc3c(c2)nnn3C(C)C)s1 [Compound 184, 2-(1-isopropyl-1H-benzo[d][1,2,3]triazol-5-yl)-5-(2-methoxyphenyl)thiazole]
hS1P1 cAMP pEC50 [1, 3]: <6.5 | hS1P1 B-arrestin2 pEC50 [2, 4]: <5

COCC1(COC)CC(=O)c2cc(-c3nc(-c4cccnc4)no3)ccc2O1 [Compound 186, 2,2-bis(methoxymethyl)-6-[3-(pyridin-3-yl)-1,2,4-oxadiazol-5-yl]-3,4-dihydro-2H-1-benzopyran-4-one]
Emax [1]: < 75% | hS1P1 cAMP pEC50 [1, 3]: <6.5 | Emax [2]: < 75% | hS1P1 B-arrestin2 pEC50 [2, 4]: <5

CCC1(CC)CC(=O)c2cc(-c3nc(-c4ccccc4O)no3)ccc2O1 [Compound 187, 2,2-diethyl-6-[3-(2-hydroxyphenyl)-1,2,4-oxadiazol-5-yl]chroman-4-one]
Emax [1]: < 75% | hS1P1 cAMP pEC50 [1, 3]: <6.5 | Emax [2]: > 75% | hS1P1 B-arrestin2 pEC50 [2, 4]: <5

CCCCC1(CCCC)CC(=O)c2cc(-c3nc(-c4cccnc4)no3)ccc2O1 [Compound 188, 2,2-dibutyl-6-[3-(pyridin-3-yl)-1,2,4-oxadiazol-5-yl]-3,4-dihydro-2H-1-benzopyran-4-one]
Emax [1]: < 75% | hS1P1 cAMP pEC50 [1, 3]: <6.5 | Emax [2]: < 75% | hS1P1 B-arrestin2 pEC50 [2, 4]: <5

C=CCNc1ccc(-c2nc(-c3ccc4[nH]c(=O)oc4c3)no2)cc1C#N [Compound 189, 2-(allylamino)-5-(3-(2-oxo-2,3-dihydrobenzo[d]oxazol-6-yl)-1,2,4-oxadiazol-5-yl)benzonitrile]
hS1P1 cAMP pEC50 [1, 3]: >6.5 | hS1P1 B-arrestin2 pEC50 [2, 4]: >5

Brc1ccccc1-c1noc(-c2ccc3[nH]nnc3c2)n1 [Compound 190, 5-[3-(2-bromophenyl)-1,2,4-oxadiazol-5-yl]-1H-1,2,3-benzotriazole]
Emax [1]: < 75% | hS1P1 cAMP pEC50 [1, 3]: <6.5 | Emax [2]: < 75% | hS1P1 B-arrestin2 pEC50 [2, 4]: <5

Cc1ccc(-c2noc(-c3ccc4c(c3)nnn4C3CCCC3)n2)s1 [Compound 192, 1-cyclopentyl-5-[3-(5-methylthiophen-2-yl)-1,2,4-oxadiazol-5-yl]-1H-1,2,3-benzotriazole]
hS1P1 cAMP pEC50 [1, 3]: <6.5 | hS1P1 B-arrestin2 pEC50 [2, 4]: <5

CCCn1nnc2cc(-c3nc(-c4ccc(C(F)(F)F)c(F)c4)no3)ccc21 [Compound 193, 5-{3-[3-fluoro-4-(trifluoromethyl)phenyl]-1,2,4-oxadiazol-5-yl}-1-propyl-1H-1,2,3-benzotriazole]
hS1P1 cAMP pEC50 [1, 3]: <6.5 | hS1P1 B-arrestin2 pEC50 [2, 4]: <5

Cc1ncccc1-c1nc(-c2ccc3c(c2)nnn3C(C)C)no1 [Compound 194, 3-(1-isopropyl-1H-benzo[d][1,2,3]triazol-5-yl)-5-(2-methylpyridin-3-yl)-1,2,4-oxadiazole]
Emax [1]: < 75% | hS1P1 cAMP pEC50 [1, 3]: <6.5 | Emax [2]: < 75% | hS1P1 B-arrestin2 pEC50 [2, 4]: <5

O=C(O)Cn1nnc2cc(-c3noc(-c4ccccc4Br)n3)ccc21 [Compound 195, 2-(5-(5-(2-bromophenyl)-1,2,4-oxadiazol-3-yl)-1H-benzo[d][1,2,3]triazol-1-yl)acetic acid]
Emax [1]: < 75% | EC50 ([1]; inhibition of cAMP production, S1P1 CHO-K1 cells, read-out: hS1P1 cAMP pEC50 (converted)): > 0.316 µM | Emax [2]: < 75% | EC50 ([2]; β-arrestin2 recruitment, S1P1 CHO-K1 cells, read-out: hS1P1 B-arrestin2 pEC50 (converted)): > 10 µM

COc1ccc(-c2nc(-c3ccc4c(c3)nnn4C3CCCC3)no2)cc1 [Compound 196, 3-(1-cyclopentyl-1H-benzo[d][1,2,3]triazol-5-yl)-5-(4-methoxyphenyl)-1,2,4-oxadiazole]
hS1P1 cAMP pEC50 [1, 3]: <6.5 | hS1P1 B-arrestin2 pEC50 [2, 4]: <5

COc1ccc(-c2noc(-c3ccc4c(c3)nnn4C3CCCC3)n2)cc1C(F)(F)F [Compound 197, 1-cyclopentyl-5-{3-[4-methoxy-3-(trifluoromethyl)phenyl]-1,2,4-oxadiazol-5-yl}-1H-1,2,3-benzotriazole]
Emax [1]: < 75% | hS1P1 cAMP pEC50 [1, 3]: <6.5 | Emax [2]: < 75% | hS1P1 B-arrestin2 pEC50 [2, 4]: <5

Clc1ncccc1-c1noc(-c2ccc3c(c2)nnn3C2CCCC2)n1 [Compound 198, 5-[3-(2-chloropyridin-3-yl)-1,2,4-oxadiazol-5-yl]-1-cyclopentyl-1H-1,2,3-benzotriazole]
Emax [1]: > 75% | hS1P1 cAMP pEC50 [1, 3]: >6.5 | Emax [2]: < 75% | hS1P1 B-arrestin2 pEC50 [2, 4]: >5

Clc1ncccc1-c1noc(-c2ccc3c(c2)nnn3CC2CC2)n1 [Compound 199, 5-[3-(2-chloropyridin-3-yl)-1,2,4-oxadiazol-5-yl]-1-(cyclopropylmethyl)-1H-1,2,3-benzotriazole]
Emax [1]: < 75% | hS1P1 cAMP pEC50 [1, 3]: <6.5 | Emax [2]: < 75% | hS1P1 B-arrestin2 pEC50 [2, 4]: <5

CC(C)n1nnc2cc(-c3noc(C45CC6CC(CC(C6)C4)C5)n3)ccc21 [Compound 200, 5-[5-(adamantan-1-yl)-1,2,4-oxadiazol-3-yl]-1-(propan-2-yl)-1H-1,2,3-benzotriazole]
hS1P1 cAMP pEC50 [1, 3]: <6.5 | hS1P1 B-arrestin2 pEC50 [2, 4]: <5

Cc1cc(-c2nc(-c3ccc4c(c3)nnn4C(C)C)no2)cnc1C [Compound 201, 5-(5,6-dimethylpyridin-3-yl)-3-(1-isopropyl-1H-benzo[d][1,2,3]triazol-5-yl)-1,2,4-oxadiazole]
hS1P1 cAMP pEC50 [1, 3]: <6.5 | hS1P1 B-arrestin2 pEC50 [2, 4]: <5

Cc1ccccc1Cc1noc(-c2ccc3c(c2)nnn3C(C)C)n1 [Compound 202, 5-{3-[(2-methylphenyl)methyl]-1,2,4-oxadiazol-5-yl}-1-(propan-2-yl)-1H-1,2,3-benzotriazole]
Emax [1]: < 75% | hS1P1 cAMP pEC50 [1, 3]: <6.5 | Emax [2]: < 75% | hS1P1 B-arrestin2 pEC50 [2, 4]: <5

COc1cccnc1-c1noc(-c2ccc3c(c2)nnn3C2CCCC2)n1 [Compound 203, 1-cyclopentyl-5-[3-(3-methoxypyridin-2-yl)-1,2,4-oxadiazol-5-yl]-1H-1,2,3-benzotriazole]
Emax [1]: < 75% | hS1P1 cAMP pEC50 [1, 3]: <6.5 | Emax [2]: > 75% | hS1P1 B-arrestin2 pEC50 [2, 4]: <5

Cc1cc(C)cc(-c2noc(-c3ccc4c(c3)nnn4C(C)C)n2)c1 [Compound 204, 5-[3-(3,5-dimethylphenyl)-1,2,4-oxadiazol-5-yl]-1-(propan-2-yl)-1H-1,2,3-benzotriazole]
Emax [1]: > 75% | hS1P1 cAMP pEC50 [1, 3]: <6.5 | Emax [2]: > 75% | hS1P1 B-arrestin2 pEC50 [2, 4]: >5

CCCn1nnc2cc(-c3nc(-c4ccncc4)no3)ccc21 [Compound 205, 1-propyl-5-[3-(pyridin-4-yl)-1,2,4-oxadiazol-5-yl]-1H-1,2,3-benzotriazole]
Emax [1]: > 75% | hS1P1 cAMP pEC50 [1, 3]: <6.5 | Emax [2]: < 75% | hS1P1 B-arrestin2 pEC50 [2, 4]: <5

Cc1ccncc1-c1noc(-c2ccc3c(c2)nnn3CC(C)(C)O)n1 [Compound 206, 2-methyl-1-{5-[3-(4-methylpyridin-3-yl)-1,2,4-oxadiazol-5-yl]-1H-1,2,3-benzotriazol-1-yl}propan-2-ol]
Emax [1]: > 75% | hS1P1 cAMP pEC50 [1, 3]: <6.5 | Emax [2]: < 75% | hS1P1 B-arrestin2 pEC50 [2, 4]: <5

COc1ccccc1-c1noc(-c2ccc3c(c2)nnn3C(C)(C)C)n1 [Compound 207, 1-tert-butyl-5-[3-(2-methoxyphenyl)-1,2,4-oxadiazol-5-yl]-1H-1,2,3-benzotriazole]
Emax [1]: > 75% | hS1P1 cAMP pEC50 [1, 3]: >6.5 | Emax [2]: > 75% | hS1P1 B-arrestin2 pEC50 [2, 4]: >5

C=CCNc1ccc(-c2nc(-c3ccc4[nH]ccc4c3)no2)cc1C#N [Compound 208, 5-(3-(1H-indol-5-yl)-1,2,4-oxadiazol-5-yl)-2-(allylamino)benzonitrile]
Emax [1]: > 75% | hS1P1 cAMP pEC50 [1, 3]: >6.5 | Emax [2]: > 75% | hS1P1 B-arrestin2 pEC50 [2, 4]: >5

CCC1(CC)CC(=O)c2cc(-c3nc(-c4ccc(NC(C)=O)cc4)no3)ccc2O1 [Compound 209, N-(4-(5-(2,2-diethyl-4-oxochroman-6-yl)-1,2,4-oxadiazol-3-yl)phenyl)acetamide]
Emax [1]: > 75% | hS1P1 cAMP pEC50 [1, 3]: >6.5 | Emax [2]: > 75% | hS1P1 B-arrestin2 pEC50 [2, 4]: >5

CCC1(CC)CC(=O)c2cc(-c3nc(-c4ccc5[nH]cnc5c4)no3)ccc2O1 [Compound 211, 6-(3-(1H-benzo[d]imidazol-5-yl)-1,2,4-oxadiazol-5-yl)-2,2-diethylchroman-4-one]
Emax [1]: < 75% | hS1P1 cAMP pEC50 [1, 3]: <6.5 | Emax [2]: > 75% | hS1P1 B-arrestin2 pEC50 [2, 4]: >5

COc1ccccc1-c1nsc(-c2ccc3c(c2)nnn3C(C)C)n1 [Compound 213, 5-[3-(2-methoxyphenyl)-1,2,4-thiadiazol-5-yl]-1-(propan-2-yl)-1H-1,2,3-benzotriazole]
hS1P1 cAMP pEC50 [1, 3]: <6.5 | hS1P1 B-arrestin2 pEC50 [2, 4]: <5
